Measurements: ChEMBL document CHEMBL1158637, “Orally bioavailable dual MMP-1/MMP-14 sparing, MMP-13 selective alpha-sulfone hydroxamates” (Bioorg Med Chem Lett, 2010)

How the values were obtained:
[1] = target: 72 kDa type IV collagenase (Homo sapiens, UniProt P08253); assay: Inhibition of MMP2
[2] = Selectivity ratio of IC50 for MMP2 to IC50 for MMP13
Collagenase 3 = Collagenase 3 (Homo sapiens, UniProt P45452); assay: Inhibition of MMP13
Matrilysin = target: T1, Matrilysin (Homo sapiens, UniProt P09237); assay: Inhibition of MMP7
T1 sequence (P09237 whole entry): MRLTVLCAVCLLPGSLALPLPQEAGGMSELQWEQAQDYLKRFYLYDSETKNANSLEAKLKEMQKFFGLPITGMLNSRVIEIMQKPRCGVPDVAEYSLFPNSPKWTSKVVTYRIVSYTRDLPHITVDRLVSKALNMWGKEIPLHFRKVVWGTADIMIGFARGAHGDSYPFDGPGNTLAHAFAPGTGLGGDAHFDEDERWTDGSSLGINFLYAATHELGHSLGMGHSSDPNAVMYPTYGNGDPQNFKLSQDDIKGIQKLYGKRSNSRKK

Interstitial collagenase = Interstitial collagenase (Homo sapiens, UniProt P03956); assay: Inhibition of MMP1
Neutrophil collagenase = Neutrophil collagenase (Homo sapiens, UniProt P22894); assay: Inhibition of MMP8
Stromelysin-1 = Stromelysin-1 (Homo sapiens, UniProt P08254); assay: Inhibition of MMP3
[3] = Oral bioavailability in rat; type: ADME, organism-based; conditions: in vivo
[4] = Half life in rat; type: ADME, organism-based; conditions: in vivo

Chain of Interstitial collagenase (P03956 whole entry): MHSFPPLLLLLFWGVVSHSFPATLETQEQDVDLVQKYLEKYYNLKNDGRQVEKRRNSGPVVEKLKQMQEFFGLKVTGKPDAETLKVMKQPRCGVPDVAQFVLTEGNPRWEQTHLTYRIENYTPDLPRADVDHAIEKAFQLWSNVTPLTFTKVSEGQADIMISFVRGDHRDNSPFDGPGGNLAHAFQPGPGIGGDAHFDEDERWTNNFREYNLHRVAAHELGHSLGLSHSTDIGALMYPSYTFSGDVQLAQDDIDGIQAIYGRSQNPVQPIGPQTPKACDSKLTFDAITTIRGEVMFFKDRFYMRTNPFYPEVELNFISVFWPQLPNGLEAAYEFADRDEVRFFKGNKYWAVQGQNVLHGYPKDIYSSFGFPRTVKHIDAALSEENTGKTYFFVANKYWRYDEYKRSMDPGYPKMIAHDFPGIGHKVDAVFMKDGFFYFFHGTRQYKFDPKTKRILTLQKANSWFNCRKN
Chain of Neutrophil collagenase (P22894 whole entry): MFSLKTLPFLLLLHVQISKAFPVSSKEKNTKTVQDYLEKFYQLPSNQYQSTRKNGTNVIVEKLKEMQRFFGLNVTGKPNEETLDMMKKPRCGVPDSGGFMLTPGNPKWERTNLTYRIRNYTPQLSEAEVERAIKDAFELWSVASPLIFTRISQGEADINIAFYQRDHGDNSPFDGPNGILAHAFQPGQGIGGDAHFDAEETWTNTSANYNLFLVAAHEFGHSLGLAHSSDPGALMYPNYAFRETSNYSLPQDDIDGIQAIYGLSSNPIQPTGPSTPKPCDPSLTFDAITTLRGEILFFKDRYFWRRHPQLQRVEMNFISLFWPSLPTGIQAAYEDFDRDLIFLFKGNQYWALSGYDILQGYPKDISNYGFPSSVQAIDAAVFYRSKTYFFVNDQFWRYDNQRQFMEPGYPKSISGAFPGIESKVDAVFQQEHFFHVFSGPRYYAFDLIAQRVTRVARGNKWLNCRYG
Chain of Stromelysin-1 (P08254 whole entry): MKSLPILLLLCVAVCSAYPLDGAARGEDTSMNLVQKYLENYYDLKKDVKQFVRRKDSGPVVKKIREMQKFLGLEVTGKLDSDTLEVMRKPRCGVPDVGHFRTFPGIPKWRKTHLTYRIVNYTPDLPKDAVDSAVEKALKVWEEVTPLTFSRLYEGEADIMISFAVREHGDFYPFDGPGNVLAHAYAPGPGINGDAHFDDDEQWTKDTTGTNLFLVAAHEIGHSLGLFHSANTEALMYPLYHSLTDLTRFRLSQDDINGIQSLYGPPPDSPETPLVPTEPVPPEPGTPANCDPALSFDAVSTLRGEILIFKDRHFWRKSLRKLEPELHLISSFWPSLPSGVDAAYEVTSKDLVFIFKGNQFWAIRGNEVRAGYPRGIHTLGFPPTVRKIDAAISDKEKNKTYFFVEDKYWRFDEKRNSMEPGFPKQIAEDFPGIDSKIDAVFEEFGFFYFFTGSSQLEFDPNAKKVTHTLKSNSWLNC
Chain of 72 kDa type IV collagenase (P08253 whole entry): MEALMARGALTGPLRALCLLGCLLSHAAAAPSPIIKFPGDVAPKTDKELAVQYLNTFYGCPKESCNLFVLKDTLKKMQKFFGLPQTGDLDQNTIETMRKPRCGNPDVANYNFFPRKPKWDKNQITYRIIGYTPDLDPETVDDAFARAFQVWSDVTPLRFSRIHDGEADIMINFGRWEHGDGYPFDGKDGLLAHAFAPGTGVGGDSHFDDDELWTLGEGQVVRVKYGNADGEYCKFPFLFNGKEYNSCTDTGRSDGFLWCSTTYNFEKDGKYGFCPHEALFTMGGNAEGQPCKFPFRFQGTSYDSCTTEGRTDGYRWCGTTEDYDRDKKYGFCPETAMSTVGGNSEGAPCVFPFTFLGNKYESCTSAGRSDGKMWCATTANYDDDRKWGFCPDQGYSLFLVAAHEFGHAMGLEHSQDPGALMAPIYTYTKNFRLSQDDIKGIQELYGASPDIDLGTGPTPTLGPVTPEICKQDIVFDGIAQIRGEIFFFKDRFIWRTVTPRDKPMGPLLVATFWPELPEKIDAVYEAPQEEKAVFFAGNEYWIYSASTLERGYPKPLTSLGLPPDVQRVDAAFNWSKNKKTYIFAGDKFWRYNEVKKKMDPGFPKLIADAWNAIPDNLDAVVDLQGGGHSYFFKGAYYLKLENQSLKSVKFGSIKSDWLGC

| Compound | IC50 [1] | Ratio IC50 [2] | IC50 (Collagenase 3) | other results |
| --- | --- | --- | --- | --- |
| C#CCN1CCC(C(=O)NO)(S(=O)(=O)c2ccc(Sc3ccccc3)cc2)CC1 | 0.33 nM | – | – | IC50 (Matrilysin): > 10000 nM; IC50 (Interstitial collagenase): 8660 nM; IC50 (Neutrophil collagenase): 1.8 nM; IC50 (Stromelysin-1): 13 nM |
| COc1ccc(N2CCN(c3ccc(S(=O)(=O)C4(C(=O)NO)CCN(C5CC5)CC4)cc3)CC2)cc1 | 5.3 nM | – | 0.42 nM | bioavailability [3]: 20.7%; IC50 (Interstitial collagenase): > 10000 nM; IC50 (Neutrophil collagenase): 59.2 nM; IC50 (Stromelysin-1): 24.5 nM; half-life [4]: 0.24 h |
| COc1ccc(C2CCN(c3ccc(S(=O)(=O)C4(C(=O)NO)CCOCC4)cc3)CC2)c(OC)c1 | – | 159 | – | – |
| O=C(NO)C1(S(=O)(=O)c2ccc(N3CCN(c4ccccc4)CC3)cc2)CCN(C2CC2)CC1 | 5.4 nM | 1.6 | 3.3 nM | – |
| COc1ccc(C(C)C)cc1C1CCN(c2ccc(S(=O)(=O)C3(C(=O)NO)CCOCC3)cc2)CC1 | > 10000 nM | 143 | 70 nM | – |
| O=C(NO)C1(S(=O)(=O)c2ccc(N3CCC(c4cccc5ccccc45)CC3)cc2)CCOCC1 | – | 43.9 | – | – |
| CCOc1ccccc1C1CCN(c2ccc(S(=O)(=O)C3(C(=O)NO)CCOCC3)cc2)CC1 | – | 88.6 | – | – |
| O=C(NO)C1(S(=O)(=O)c2ccc(N3CCN(c4ccc(C(F)(F)F)cc4)CC3)cc2)CCOCC1 | 12.1 nM | – | 0.6 nM | IC50 (Matrilysin): > 10000 nM; bioavailability [3]: 16.3%; IC50 (Interstitial collagenase): > 10000 nM; IC50 (Neutrophil collagenase): 670 nM; IC50 (Stromelysin-1): 300 nM; half-life [4]: 2.59 h |
| O=C(NO)C1(S(=O)(=O)c2ccc(N3CCC(c4ccccc4C(F)(F)F)CC3)cc2)CCOCC1 | – | 31.3 | – | – |
| O=C(NO)C1(S(=O)(=O)c2ccc(N3CCC(c4ccccc4-c4ccc(F)cc4)CC3)cc2)CCOCC1 | – | 160 | – | – |
| COc1ccc(C2CCN(c3ccc(S(=O)(=O)C4(C(=O)NO)CCOCC4)cc3)CC2)c(C)c1 | – | 72.1 | – | – |
| COc1ccc(OC)c(C2CCN(c3ccc(S(=O)(=O)C4(C(=O)NO)CCOCC4)cc3)CC2)c1 | 800 nM | 70.2 | 11.4 nM | – |
| O=C(NO)C1(S(=O)(=O)c2ccc(N3CCN(c4ccc(C(F)(F)F)cc4)CC3)cc2)CCN(C2CC2)CC1 | 32.6 nM | 13.6 | 2.4 nM | – |

The next lines start with results.

| IC50 [1] | Ratio IC50 [2] | IC50 (Collagenase 3) | Compound | other results |
| --- | --- | --- | --- | --- |
| 48.5 nM | 6.1 | 8 nM | COc1cccc(N2CCN(c3ccc(S(=O)(=O)C4(C(=O)NO)CCOCC4)cc3)CC2)c1 | – |
| 3.7 nM | – | 1 nM | O=C(NO)C1(S(=O)(=O)c2ccc(N3CCN(c4ccc(Cl)cc4)CC3)cc2)CCOCC1 | bioavailability [3]: 7.4%; IC50 (Interstitial collagenase): > 10000 nM; IC50 (Neutrophil collagenase): 1000 nM; IC50 (Stromelysin-1): 130 nM; half-life [4]: 1.91 h |
| – | 4.4 | – | O=C(NO)C1(S(=O)(=O)c2ccc(N3CCN(c4ccccc4Cl)CC3)cc2)CCOCC1 | – |
| 330 nM | 16.5 | 20 nM | O=C(NO)C1(S(=O)(=O)c2ccc(N3CCN(c4cccc(C(F)(F)F)c4)CC3)cc2)CCOCC1 | – |
| – | 2.9 | – | O=C(NO)C1(S(=O)(=O)c2ccc(N3CCC(c4ccc(Cl)cc4)CC3)cc2)CCOCC1 | – |
| 700 nM | 21.4 | 32.7 nM | Cc1ccccc1C1CCN(c2ccc(S(=O)(=O)C3(C(=O)NO)CCOCC3)cc2)CC1 | – |
| – | 13.8 | – | O=C(NO)C1(S(=O)(=O)c2ccc(N3CCN(c4ccccc4)CC3)cc2)CCOCC1 | – |
| – | 18.4 | – | Cc1ccc(N2CCN(c3ccc(S(=O)(=O)C4(C(=O)NO)CCOCC4)cc3)CC2)cc1 | – |
| – | 6.2 | – | O=C(NO)C1(S(=O)(=O)c2ccc(N3CCC(c4ccccc4O)CC3)cc2)CCOCC1 | – |
| 3700 nM | 211 | 17.5 nM | COc1ccccc1C1CCN(c2ccc(S(=O)(=O)C3(C(=O)NO)CCOCC3)cc2)CC1 | – |
| – | 7.8 | – | O=C(NO)C1(S(=O)(=O)c2ccc(N3CCN(c4ccccc4F)CC3)cc2)CCOCC1 | – |
| – | 11.4 | – | Cc1ccccc1N1CCN(c2ccc(S(=O)(=O)C3(C(=O)NO)CCOCC3)cc2)CC1 | – |
| 18.4 nM | 29 | 0.5 nM | COc1ccc(N2CCN(c3ccc(S(=O)(=O)C4(C(=O)NO)CCOCC4)cc3)CC2)cc1 | – |
| 82 nM | 1.9 | 42.5 nM | O=C(NO)C1(S(=O)(=O)c2ccc(N3CCC(c4ccccc4Cl)CC3)cc2)CCOCC1 | – |
| – | 0.7 | – | O=C(NO)C1(S(=O)(=O)c2ccc(N3CCC(c4ccccc4)CC3)cc2)CCOCC1 | – |
| 1400 nM | 49 | 28.6 nM | Cc1ccc(N2CCN(c3ccc(S(=O)(=O)C4(C(=O)NO)CCOCC4)cc3)CC2)c(C)c1 | – |
| – | 2.8 | – | COc1ccccc1N1CCN(c2ccc(S(=O)(=O)C3(C(=O)NO)CCOCC3)cc2)CC1 | – |
